Test results: article PMC6979384, “Characterization of the plant homeodomain (PHD) reader family for their histone tail interactions” (Epigenetics & Chromatin, 2020)

How the values were obtained:
Experiment in all cases: Histone peptide microarray
Assay type in all cases: binding, human
BAZ2B = conditions: BAZ2B; sheet "Array Heatmap"; each array performed twice, total n = 4
Summary of the method: (§1)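 Binding of recombinant GST-fused PHD readers (0.5 μM) is detected on an array of 293 histone peptides, modified singly or in combination. An optimized array protocol is followed, and each intensity is the average of quadruplicate measurements with standard deviation.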

DPF2 (PPC2W2) = conditions: DPF2 (PPC2W2); sheet "Array Heatmap"; each array performed twice, total n = 4
Summary of the method: as §1

SP140L = conditions: SP140L; sheet "Array Heatmap"; each array performed twice, total n = 4
Summary of the method: as §1

PHF21A = conditions: PHF21A; sheet "Array Heatmap"; each array performed twice, total n = 4
Summary of the method: as §1

KDM7A = conditions: KDM7A; sheet "Array Heatmap"; each array performed twice, total n = 4
Summary of the method: as §1

RAG2 = conditions: RAG2; sheet "Array Heatmap"; each array performed twice, total n = 4
Summary of the method: as §1

DIDO1 = conditions: DIDO1; sheet "Array Heatmap"; each array performed twice, total n = 4
Summary of the method: as §1

KDM4C (TTP) = conditions: KDM4C (TTP); sheet "Array Heatmap"; each array performed twice, total n = 4
Summary of the method: as §1

PHF23 = conditions: PHF23; sheet "Array Heatmap"; each array performed twice, total n = 4
Summary of the method: as §1

BPTF (PB) = conditions: BPTF (PB); sheet "Array Heatmap"; each array performed twice, total n = 4
Summary of the method: as §1

PHRF1 (RP) = conditions: PHRF1 (RP); sheet "Array Heatmap"; each array performed twice, total n = 4
Summary of the method: as §1

ING4 = conditions: ING4; sheet "Array Heatmap"; each array performed twice, total n = 4
Summary of the method: as §1

CHD5 (PPCC) = conditions: CHD5 (PPCC); sheet "Array Heatmap"; each array performed twice, total n = 4
Summary of the method: as §1

KDM5A (3) = conditions: KDM5A (3); sheet "Array Heatmap"; each array performed twice, total n = 4
Summary of the method: as §1

MORC3 (CW) = conditions: MORC3 (CW); sheet "Array Heatmap"; each array performed twice, total n = 4
Summary of the method: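 A peptide microarray holding 293 synthetic histone peptides with individual or combinatorial modifications was probed with each GST-PHD protein at 0.5 μM. Values represent mean intensity (±SD) from four replicates.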

ING3 = conditions: ING3; sheet "Array Heatmap"; each array performed twice, total n = 4
Summary of the method: as §1

ING1 = conditions: ING1; sheet "Array Heatmap"; each array performed twice, total n = 4
Summary of the method: as §1

ING5 = conditions: ING5; sheet "Array Heatmap"; each array performed twice, total n = 4
Summary of the method: as §1

CHD4 (PPCC) = conditions: CHD4 (PPCC); sheet "Array Heatmap"; each array performed twice, total n = 4
Summary of the method: as §1

KDM5A (1) = conditions: KDM5A (1); sheet "Array Heatmap"; each array performed twice, total n = 4
Summary of the method: as §1

AIRE (PP) = conditions: AIRE (PP); sheet "Array Heatmap"; each array performed twice, total n = 4
Summary of the method: as §1

PHF13 = conditions: PHF13; sheet "Array Heatmap"; each array performed twice, total n = 4
Summary of the method: as §1

PHF8 = conditions: PHF8; sheet "Array Heatmap"; each array performed twice, total n = 4
Summary of the method: as §1

TAF3 = conditions: TAF3; sheet "Array Heatmap"; each array performed twice, total n = 4
Summary of the method: as §1

CHD5 (PCC) = conditions: CHD5 (PCC); sheet "Array Heatmap"; each array performed twice, total n = 4
Summary of the method: as §1

PHF2 = conditions: PHF2; sheet "Array Heatmap"; each array performed twice, total n = 4
Summary of the method: as §1

TRIM66 (PB) = conditions: TRIM66 (PB); sheet "Array Heatmap"; each array performed twice, total n = 4
Summary of the method: as §1

ING2 = conditions: ING2; sheet "Array Heatmap"; each array performed twice, total n = 4
Summary of the method: as §1

KDM5B (1) = conditions: KDM5B (1); sheet "Array Heatmap"; each array performed twice, total n = 4
Summary of the method: as §1

MLL5 = conditions: MLL5; sheet "Array Heatmap"; each array performed twice, total n = 4
Summary of the method: as §1

KDM5B (3) = conditions: KDM5B (3); sheet "Array Heatmap"; each array performed twice, total n = 4
Summary of the method: as §1

H4K20me3 (1-23): H4 1-23
Array Heatmap value (peptide array signal) (BAZ2B): 0.4188
Array Heatmap value (peptide array signal) (DPF2 (PPC2W2)): 0.6148
Array Heatmap value (peptide array signal) (SP140L): 0.3602
Array Heatmap value (peptide array signal) (PHF21A): 0.4514
Array Heatmap value (peptide array signal) (KDM7A): 0.329
Array Heatmap value (peptide array signal) (RAG2): 0.2424
Array Heatmap value (peptide array signal) (DIDO1): 0.6567
Array Heatmap value (peptide array signal) (KDM4C (TTP)): 0.4703
Array Heatmap value (peptide array signal) (PHF23): 0.5181
Array Heatmap value (peptide array signal) (BPTF (PB)): 0.3468
Array Heatmap value (peptide array signal) (PHRF1 (RP)): 0.4228
Array Heatmap value (peptide array signal) (ING4): 0.4304
Array Heatmap value (peptide array signal) (CHD5 (PPCC)): 0.5147
Array Heatmap value (peptide array signal) (KDM5A (3)): 0.4449
Array Heatmap value (peptide array signal) (MORC3 (CW)): 0.3692
Array Heatmap value (peptide array signal) (ING3): 0.465
Array Heatmap value (peptide array signal) (ING1): 0.5131
Array Heatmap value (peptide array signal) (ING5): 0.3228
Array Heatmap value (peptide array signal) (CHD4 (PPCC)): 0.5546
Array Heatmap value (peptide array signal) (KDM5A (1)): 0.4224
Array Heatmap value (peptide array signal) (AIRE (PP)): 0.4048
Array Heatmap value (peptide array signal) (PHF13): 0.5943
Array Heatmap value (peptide array signal) (PHF8): 0.3429
Array Heatmap value (peptide array signal) (TAF3): 0.2546
Array Heatmap value (peptide array signal) (CHD5 (PCC)): 0.7553
Array Heatmap value (peptide array signal) (PHF2): 0.4783
Array Heatmap value (peptide array signal) (TRIM66 (PB)): 0.5898
Array Heatmap value (peptide array signal) (ING2): 0.5794
Array Heatmap value (peptide array signal) (KDM5B (1)): 0.6332
Array Heatmap value (peptide array signal) (MLL5): 0.5073
Array Heatmap value (peptide array signal) (KDM5B (3)): 0.4599
